Data on 1 molecule can be found in PMC6044831 (ACS Omega, 2018).

The data set in a line: Storage stability of [^125I] 5 in the refrigerator. Type of data set: physicochemical. As to conditions: 4 °C, storage time over which compound found stable.

`O=CCCCNC(=O)c1ccc([125I])cc1` [[^125I] 5]: the “stable in the refrigerator (no hydrolysis)” value is on record as “more than 6 months”.
